target: T1, cloned human H3 receptors (Homo sapiens, UniProt Q9Y5N1); assay: H3 Receptor Binding (Human); settings: cloned human H3 receptors stably expressed in SK-N-MC cells; average of the results obtained
T1 construct: expressed in transfected cells; host or cells: SK-N-MC cells
Experimental: Binding of compounds to the cloned human H3 receptors, stably expressed in SK-N-MC cells, was performed as described by Barbier, A. J. et al. (Br. J. Pharmacol. 2004, 143(5), 649-661). Data for compounds tested in this assay are presented in Table 1 as an average of the results obtained.

T1 sequence (Q9Y5N1 whole entry): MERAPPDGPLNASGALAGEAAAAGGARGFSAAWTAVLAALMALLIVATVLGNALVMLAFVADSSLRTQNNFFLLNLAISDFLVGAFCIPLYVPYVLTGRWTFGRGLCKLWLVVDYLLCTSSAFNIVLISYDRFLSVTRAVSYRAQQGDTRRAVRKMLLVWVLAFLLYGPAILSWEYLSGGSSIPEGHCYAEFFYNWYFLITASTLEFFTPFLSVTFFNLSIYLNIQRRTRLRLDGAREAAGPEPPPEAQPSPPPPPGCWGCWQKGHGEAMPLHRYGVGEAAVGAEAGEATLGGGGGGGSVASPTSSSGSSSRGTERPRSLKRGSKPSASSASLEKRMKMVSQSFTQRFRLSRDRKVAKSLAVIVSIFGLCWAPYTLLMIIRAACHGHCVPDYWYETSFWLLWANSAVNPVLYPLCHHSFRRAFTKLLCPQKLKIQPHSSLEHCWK

| Structure (SMILES) | Ki |
| --- | --- |
| COc1cccc(C(=O)N2CCc3cc(C(=O)N4CCN(C5CCCCC5)CC4)ccc3C2)c1 [Example 79, (4-Cyclohexyl-piperazin-1-yl)-[2-(3-methoxy-benzoyl)-1,2,3,4-tetrahydro-isoquinolin-6-yl]-methanone] | 0.169 µM |
| CC(C)(C)c1ccc(C(=O)N2CCc3cc(C(=O)N4CCN(C5CCC5)CC4)ccc3C2)cc1 [Example 131, [2-(4-tert-Butyl-benzoyl)-1,2,3,4-tetrahydro-isoquinolin-6-yl]-(4-cyclobutyl-piperazin-1-yl)-methanone] | 0.078 µM |
| O=C(c1ccc2c(c1)CCN(C(=O)C1CCCCC1)C2)N1CCN2CCCC2C1 (stereo not drawn) [Example 153, Cyclohexyl-[6-(hexahydro-pyrrolo[1,2-a]pyrazine-2-carbonyl)-3,4-dihydro-1H-isoquinolin-2-yl]-methanone] | 0.054 µM |
| O=C(c1ccc2c(c1)CCN(C(=O)C1CCC1)C2)N1CCN(C2CCC2)CC1 [Example 31, Cyclobutyl-[6-(4-cyclobutyl-piperazine-1-carbonyl)-3,4-dihydro-1H-isoquinolin-2-yl]-methanone] | 0.087 µM |
| Cc1ccccc1C(=O)N1CCc2cc(C(=O)N3CCN(C4CCCCC4)CC3)ccc2C1 [Example 82, (4-Cyclohexyl-piperazin-1-yl)-[2-(2-methyl-benzoyl)-1,2,3,4-tetrahydro-isoquinolin-6-yl]-methanone] | 0.055 µM |
| O=C(c1cccc(F)c1)N1CCc2cc(C(=O)N3CCC[C@H]3CN3CCCC3)ccc2C1 [Example 57, (S)-(3-Fluoro-phenyl)-[6-(2-pyrrolidin-1-ylmethyl-pyrrolidine-1-carbonyl)-3,4-dihydro-1H-isoquinolin-2-yl]-methanone] | 0.014 µM |
| O=C(c1ccccc1Cl)N1CCc2cc(C(=O)N3CCC[C@H]3CN3CCCC3)ccc2C1 [Example 50, (S)-(2-Chloro-phenyl)-[6-(2-pyrrolidin-1-ylmethyl-pyrrolidine-1-carbonyl)-3,4-dihydro-1H-isoquinolin-2-yl]-methanone] | 0.012 µM |
| O=C(c1ccc2c(c1)CCN(C1CCCC1)C2)N1CCOCC1 [Example 172, (2-Cyclopentyl-1,2,3,4-tetrahydro-isoquinolin-6-yl)-morpholin-4-yl-methanone] | 2.8 µM |
| O=C(c1ccc2c(c1)CCN(C(=O)C1CCCO1)C2)N1CCCN(C2CCC2)CC1 (stereo not drawn) [Example 138, [6-(4-Cyclobutyl-[1,4]diazepane-1-carbonyl)-3,4-dihydro-1H-isoquinolin-2-yl]-(tetrahydro-furan-2-yl)-methanone] | 0.001 µM |
| CC(C)N1CCN(C(=O)c2ccc3c(c2)CCN(Cc2ccc(C(F)(F)F)cc2)C3)CC1 [Example 20, (4-Isopropyl-piperazin-1-yl)-[2-(4-trifluoromethyl-benzyl)-1,2,3,4-tetrahydro-isoquinolin-6-yl]-methanone] | 0.019 µM |
| Cc1ccccc1C(=O)N1CCc2cc(C(=O)N3CCC[C@H]3CN3CCCC3)ccc2C1 [Example 54, (S)-[6-(2-Pyrrolidin-1-ylmethyl-pyrrolidine-1-carbonyl)-3,4-dihydro-1H-isoquinolin-2-yl]-o-tolyl-methanone] | 0.009 µM |
| CC(C)(C)c1ccc(C(=O)N2CCc3cc(C(=O)N4CCN(C5CCCCC5)CC4)ccc3C2)cc1 [Example 84, [2-(4-tert-Butyl-benzoyl)-1,2,3,4-tetrahydro-isoquinolin-6-yl]-(4-cyclohexyl-piperazin-1-yl)-methanone] | 0.18 µM |
| O=C(Cc1ccccc1)N1CCc2cc(C(=O)N3CCN(C4CCC4)CC3)ccc2C1 [Example 129, 1-[6-(4-Cyclobutyl-piperazine-1-carbonyl)-3,4-dihydro-1H-isoquinolin-2-yl]-2-phenyl-ethanone] | 0.018 µM |
| CN(C)C1CCN(C(=O)c2ccc3c(c2)CCN(C(=O)C2CCCCC2)C3)CC1 [Example 154, Cyclohexyl-[6-(4-dimethylamino-piperidine-1-carbonyl)-3,4-dihydro-1H-isoquinolin-2-yl]-methanone] | 0.441 µM |
| CC(C)N1CCN(C(=O)c2ccc3c(c2)CCN(C(=O)c2ccccc2)C3)CC1 [Example 28, (2-Benzoyl-1,2,3,4-tetrahydro-isoquinolin-6-yl)-(4-isopropyl-piperazin-1-yl)-methanone] | 0.016 µM |
| O=C(c1ccc2c(c1)CCN(C1CCC1)C2)N1CCCN(C2CCC2)CC1 [Example 189, (4-Cyclobutyl-[1,4]diazepan-1-yl)-(2-cyclobutyl-1,2,3,4-tetrahydro-isoquinolin-6-yl)-methanone] | 0.001 µM |
| O=C(Cc1ccc(F)cc1)N1CCc2cc(C(=O)N3CCN(C4CCC4)CC3)ccc2C1 [Example 130, 1-[6-(4-Cyclobutyl-piperazine-1-carbonyl)-3,4-dihydro-1H-isoquinolin-2-yl]-2-(4-fluoro-phenyl)-ethanone] | 0.01 µM |
| O=C(c1ccc2c(c1)CCN(C(=O)C1CCCCC1)C2)N1CCN(CC2CCCO2)CC1 (stereo not drawn) [Example 151, Cyclohexyl-{6-[4-(tetrahydro-furan-2-ylmethyl)-piperazine-1-carbonyl]-3,4-dihydro-1H-isoquinolin-2-yl}-methanone] | 5.2 µM |

| Structure (SMILES) | Ki |
| --- | --- |
| O=C(c1ccc2c(c1)CCN(C(=O)c1cccc([N+](=O)[O-])c1)C2)N1CCN(C2CCC2)CC1 [Example 121, [6-(4-Cyclobutyl-piperazine-1-carbonyl)-3,4-dihydro-1H-isoquinolin-2-yl]-(3-nitro-phenyl)-methanone] | 0.005 µM |
| O=C(c1ccc2c(c1)CCN(C(=O)c1ccc(Cl)cc1Cl)C2)N1CCCN(C2CCC2)CC1 [Example 143, [6-(4-Cyclobutyl-[1,4]diazepane-1-carbonyl)-3,4-dihydro-1H-isoquinolin-2-yl]-(2,4-dichloro-phenyl)-methanone] | 0.001 µM |
| O=C(c1ccc2c(c1)CCN(C(=O)c1ccc(Cl)cc1)C2)N1CCN(C2CCCCC2)CC1 [Example 77, [2-(4-Chloro-benzoyl)-1,2,3,4-tetrahydro-isoquinolin-6-yl]-(4-cyclohexyl-piperazin-1-yl)-methanone] | 0.18 µM |
| CO[C@H]1CC[C@H](C(=O)N2CCc3cc(C(=O)N4CCCN(C5CCC5)CC4)ccc3C2)CC1 [Example 147, trans-[6-(4-Cyclobutyl-[1,4]diazepane-1-carbonyl)-3,4-dihydro-1H-isoquinolin-2-yl]-(4-methoxy-cyclohexyl)-methanone] | 0.001 µM |
| CN(C)c1ccc(C(=O)N2CCc3cc(C(=O)N4CCN(C5CCC5)CC4)ccc3C2)cc1 [Example 117, [6-(4-Cyclobutyl-piperazine-1-carbonyl)-3,4-dihydro-1H-isoquinolin-2-yl]-(4-dimethylamino-phenyl)-methanone] | 0.013 µM |
| CCCS(=O)(=O)N1CCc2cc(C(=O)N3CCN(C4CCC4)CC3)ccc2C1 [Example 101, (4-Cyclobutyl-piperazin-1-yl)-[2-(propane-1-sulfonyl)-1,2,3,4-tetrahydro-isoquinolin-6-yl]-methanone] | 0.034 µM |
| O=C(C1CCCCC1)N1CCc2cc(CN3CCN4CCCCC4C3)ccc2C1 (stereo not drawn) [Example 168, Cyclohexyl-[6-(octahydro-pyrido[1,2-a]pyrazin-2-ylmethyl)-3,4-dihydro-1H-isoquinolin-2-yl]-methanone] | 0.013 µM |
| CC(C)N1CCN(C(=O)c2ccc3c(c2)CCN(C(=O)c2ccc(O)cc2)C3)CC1 [Example 107, [2-(4-Hydroxy-benzoyl)-1,2,3,4-tetrahydro-isoquinolin-6-yl]-(4-isopropyl-piperazin-1-yl)-methanone] | 0.034 µM |
| O=C(c1ccc2c(c1)CCN(C(=O)c1ccccc1Cl)C2)N1CCN(C2CCC2)CC1 [Example 42, (2-Chloro-phenyl)-[6-(4-cyclobutyl-piperazine-1-carbonyl)-3,4-dihydro-1H-isoquinolin-2-yl]-methanone] | 0.01 µM |
| COc1cccc(C(=O)N2CCc3cc(C(=O)N4CCN5CCCCC5C4)ccc3C2)c1 (stereo not drawn) [Example 93, [2-(3-Methoxy-benzoyl)-1,2,3,4-tetrahydro-isoquinolin-6-yl]-(octahydro-pyrido[1,2-a]pyrazin-2-yl)-methanone] | 0.017 µM |
| O=C(c1ccc2c(c1)CCN(C1CCC1)C2)N1CCOCC1 [Example 186, (2-Cyclobutyl-1,2,3,4-tetrahydro-isoquinolin-6-yl)-morpholin-4-yl-methanone] | 1.8 µM |
| COc1ccccc1C(=O)N1CCc2cc(C(=O)N3CCN(C4CCCCC4)CC3)ccc2C1 [Example 78, (4-Cyclohexyl-piperazin-1-yl)-[2-(2-methoxy-benzoyl)-1,2,3,4-tetrahydro-isoquinolin-6-yl]-methanone] | 0.07 µM |
| O=C(c1ccc2c(c1)CCNC2)N1CCN(C2CCCC2)CC1 [Example 8, (4-Cyclopentyl-piperazin-1-yl)-(1,2,3,4-tetrahydro-isoquinolin-6-yl)-methanone] | 0.011 µM |
| CN(C)[C@H]1CCN(C(=O)c2ccc3c(c2)CCN(C(=O)C2CCCCC2)C3)C1 [Example 156, (S)-Cyclohexyl-[6-(3-dimethylamino-pyrrolidine-1-carbonyl)-3,4-dihydro-1H-isoquinolin-2-yl]-methanone] | 0.03 µM |
| Cc1ccc(C(=O)N2CCc3cc(C(=O)N4CCN(C5CCCC5)CC4)ccc3C2)cc1 [Example 70, (4-Cyclopentyl-piperazin-1-yl)-[2-(4-methyl-benzoyl)-1,2,3,4-tetrahydro-isoquinolin-6-yl]-methanone] | 0.065 µM |
| CC(C)N1CCc2cc(C(=O)N3CCOCC3)ccc2C1 [Example 174, (2-Isopropyl-1,2,3,4-tetrahydro-isoquinolin-6-yl)-morpholin-4-yl-methanone] | 2.14 µM |
| O=C(c1ccc2c(c1)CCN(C(=O)C1CC1)C2)N1CCN(C2CCC2)CC1 [Example 34, [6-(4-Cyclobutyl-piperazine-1-carbonyl)-3,4-dihydro-1H-isoquinolin-2-yl]-cyclopropyl-methanone] | 0.014 µM |
| N#Cc1ccc(C(=O)N2CCc3cc(C(=O)N4CCC[C@H]4CN4CCCC4)ccc3C2)cc1 [Example 53, (S)-4-[6-(2-Pyrrolidin-1-ylmethyl-pyrrolidine-1-carbonyl)-3,4-dihydro-1H-isoquinoline-2-carbonyl]-benzonitrile] | 0.009 µM |

— patent publication US20090099158A1, “TETRAHYDROISOQUINOLINE COMPOUNDS AS MODULATORS OF THE HISTAMINE H3 RECEPTOR” (priority 2007, published 2009)
